Tests used:
[1] = system: Apis mellifera Carniolan foraging worker honeybees; assay: Choice test in free-flight box apparatus; format: in vivo; conditions: for Repellence Score: percent food-weight change vs corresponding dishes in preceding test; for Effectiveness at 10-fold lower concentration: 0.05% compared with 0.5%
Experimental: To determine whether living honeybees will choice to move towards a source of a candidate compound, these compounds were assayed using a choice test in a free-flight box apparatus.
All tests were done in a free-flight box apparatus. The apparatus comprises a 244 cm long×46 cm deep×30 cm high clear plastic box including two equally-sized independent testing chambers, each with 10 cm diameter air inlets that admit filtered room air, separated by a smaller central chamber with a screened air outlet to each testing chamber. Air can be pulled through the sealed box via a 10 cm diameter duct from the air outlet using an AQE Fume Fighter 500 fume extractor (BPA Air Quality Solutions, LLC, Charleston, S.C.), which removes the test odors using activated charcoal and HEPA filters. The box is housed in an environmentally controlled room with overhead illumination timed to correspond to the current ambient light cycle including 2 additional sets of lights timed to approximate crepuscular lighting conditions. The bottom of the apparatus was lined with clean absorbent paper marked with a 4×9 grid pattern, forming 12 cm×12 cm squares with marked coordinates.
Apis mellifera Carniolan foraging worker honeybees were obtained from a local apiary (typically 60 bees per shipment). Thirty honeybees were put into each testing chamber and were allowed to acclimate for 24 hours with food and water freely available.
At the beginning of each test day all food was removed from the test chamber, but water was continually available throughout all tests. For each test, approximately 0.3 g of organic, raw orange blossom honey was added to each clean small plastic weigh boat (Cole-Palmer). The honey boats were placed in small plastic culture dishes, which were distributed in the marked squares in the chambers. The positions of the dishes on the grid for a set of trials was chosen to avoid the bees' preferred resting area so that they had to find the food actively, but the same dish positions were maintained for a given set of trials. […] The honey in each boat was weighed on an analytical balance before and after the test, with the screened sample as a control for evaporative loss. The fume extractor was left off during the experimental trails, and was turned on to clear the air after the test dishes were covered and removed from the chamber at the end of each trial.
Based on the observation that bees tend to return to dishes in the same position where they have fed before, each set of trials with each group of bees began with “Pattern Identification” tests to see which dishes lose the most weight, reflecting the most feeding. Once bees were consuming an acceptable amount in 10-15 min, typically in 1-2 trials, we began a set of test compound trials. The test compound was pipetted onto pieces of filter paper placed on the dish bottom below the boat containing a fresh, weighed honey sample so that the test compound was inaccessible to the bees. We used 2 μL of a candidate compound at a concentration of 0.05-0.5%, in Triton X-100 or paraffin oil, on each of four pieces of filter paper per dish. The test-solution dishes were set at the same positions as the one or two dishes favored in the preceding Pattern Identification trial. To eliminate interference from the solvent, the other dishes without the test substance contained the same volume of the appropriate solvent on filter papers as the test solution dishes. The bees were allowed to feed for 10-15 minutes. Bee movements were recorded by a small, wide-angle digital video camcorder (HD Hero 960; GoPro, Halfmoon Bay, Calif.) placed on a tripod in front of the test chamber. The bees were given a brief rest while the honey was weighed and a second test was begun with fresh dishes, except that the test compound-containing dish or dishes were placed at whichever positions were most visited in the preceding test. […] The bees were then rested for 1-3 hours and a subsequent set of trials begun with another Pattern Identification. […]

OBP2 = assay: Fluorescent-quench ligand-protein-binding assay (OBP2 binding screen); set-up: species or system Apis mellifera
Description: To identify a honeybee repellent disclosed herein, candidate compounds were screened based upon the fact that 2-heptanone is an established repellent of bees. 2-heptanone is thought to mediate its behavioral response through binding to a specific odorant-binding protein called OBP2. Therefore compounds that bind OBP2 have the potential to act as odor “mimics” of 2-heptanone. By utilizing a fluorescent-quench, ligand-protein-binding assay, 30,000 compounds from the DIVERSET® library (ChemBridge Corp., San Diego, Calif.), a chemical library, were screened and over 150 candidate compounds were isolated that bind OBP2 (Table 1). Such assays are generally known in the art. See, e.g., Briand, et al., Ligand-Binding Properties and Structural Characterization of a Novel Rat Odorant-Binding Protein Variant, Eur. J. Biochem. 267(10): 3079-3089 (2000); Briand, et al., Ligand Binding and Physico-Chemical Properties of ASP2, A Recombinant Odorant-Binding Protein From Honeybee (Apis mellifera L.), Eur. J. Biochem. 268(3): 752-760 (2001); Briand, et al., Characterization of a Chemosensory Protein (ASP3c) from Honeybee (Apis mellifera L.) as a Brood Pheromone Carrier, Eur. J. Biochem. 269(18): 4586-4596 (2002), each of which is hereby incorporated by reference in its entirety.

[2] = system: Apis mellifera Carniolan foraging worker honeybees; assay: Proboscis extension response (PER) assay in bees conditioned to 2-heptanone; format: in vivo; conditions: final compound concentration 0.5% (TRITON X-100/water), 4 s exposure; only bees PER-positive to 2-heptanone and negative to controls counted
Experimental: To determine whether a living honeybee can recognize a candidate compound, these compounds were tested using a proboscis extension response (PER) assay using classical conditioning approaches. Proboscis extension response conditioning is a case of appetitive learning, in which bees learn to associate odor stimuli with sucrose reward in the laboratory. In this case, bees were conditioned to produce a PER to 2-heptanone as the conditioned stimulus and a sugar reward as the unconditioned stimulus. These trained bees were then exposed to an odor pulse of a candidate compound to test whether a candidate compound would also produce a PER. If the candidate compound “mimics” 2-heptanone then the honeybee will extend its proboscis.
For conditioning procedures, Apis mellifera Carniolan foraging worker honeybees were obtained from a local apiary (typically 60 bees per shipment). The honeybees were held overnight in insect cages with food and water freely available, in an environmentally controlled room on a light cycle similar to the ambient cycle at the time of the assay.
For conditioning procedures, all tests were done in an odorant delivery apparatus set inside a fume hood. The apparatus comprised a set of open-ended, horizontal, 3 cm diameter by 10 cm long plastic tubes. Each tube was designed where a honeybee could be positioned at the distal end of a tube, with the opening at the other end of the tube located proximal to an inlet of the fume hood. To deliver an odorant, room air was pumped by a diaphragm pump through a particle filter via 0.25 inch plastic tubing at approximately 0.7 m/sec. The air flow passes into the headspace above an odorant (0.5% [v/v]2-heptanone dissolved in odorless light paraffin oil) contained in a 100 mL bottle. The headspace air then passes through another plastic tube to a manifold of 4-way valves, each of which was attached near the proximal end of a plastic tube containing a bee. Each bee was exposed separately for a desired time period to the odorant by opening and closing the appropriate valve. When each valve was closed, the odor was flushed away immediately by the continuous fume hood air stream.
To train a honeybee to respond to a conditioned and unconditioned stimuli, bees were placed, without anesthesia, in individual 1.5 mL micro-centrifuge holding tubes and held overnight without access to food or water. The holding tubes containing the starved bees were placed in racks in groups of eight. One rack at a time was placed behind the odorant delivery apparatus so that each bee's head is centered at the distal end of a horizontal plastic tube. Each bee was exposed to the 2-heptanone odorant alone for four seconds, and then while being fed an 80% sucrose solution for and additional three seconds. The sucrose solution was delivered on a piece of saturated filter paper held in forceps. […] Positive and negative responses were recorded. A positive PER was scored when a bee extended its proboscis before the sucrose appeared. In a typical trial, 48 individual bees were subjected to conditioning. Six rounds of training were done before testing began, and typically a majority of the bees were successfully conditioned by the second or third round of training.
After conditioning, honeybees were tested with the candidate compounds the same day or on the following day or, most commonly, both. When held overnight, bees were fed with sucrose and kept in their holding tubes. When tested the day after training, bees were given one or more rounds of conditioning with 2-heptatone to refresh their memories. Candidate compounds stocks were made at 5% (w/v) in polyoxyethylene octyl phenyl ether (TRITON® X-100), a non-ionic detergent/surfactant, and stored at 4° C. This detergent is similar to substances used as carriers for a variety of commercial pest-control agents, can act as a solvent for both hydrophilic and hydrophobic substances, and is itself nearly odorless. […]

[3] = amount 0.5%, negative = increase in food consumption

Compound	Repellence Score [1, 3]	OBP2 binding characteristic of compound (OBP2)	2-heptanone positive bees testing positive to compound [2]	Effectiveness at 10-fold lower concentration [1]	Repellence Score ([1]; amount 0.05%)	Repellence Score ([1]; amount 0.1%)	Repellent or attractant effect in choice test (in words) ([1]; reduction of feeding at dishes most visited in preceding test)
COc1ccc(C(=O)C=Cc2c(C)[nH]c3ccccc23)cc1 [compound 1, 1-(4-methoxyphenyl)-3-(2-methyl-1H-indol-3-yl)-2-propen-1-one]	57.8%	Moderate (Moderate, indicates that 50% or less of the compound bound to OBP2.)	26.6%	–	–	–	–
O=[N+]([O-])c1ccc(C=Cc2ccc(O)cc2)cc1 [compound 2, 4-[2-(4-nitrophenyl)vinyl]phenol]	37.6%	Moderate (Moderate, indicates that 50% or less of the compound bound to OBP2.)	31.5%	significantly more effective	57.7%	–	–
COc1cc(C=NO)ccc1Oc1ccc([N+](=O)[O-])cc1 [compound 3, 3-methoxy-4-(4-nitrophenoxy)benzaldehyde oxime]	49.8%	–	14.5%	–	–	–	–
COc1ccc(CN2CCN(Cc3ccccc3)CC2)c(C)c1C [compound 7, 1-benzyl-4-(4-methoxy-2,3-dimethylbenzyl)piperazine]	–	Moderate (Moderate, indicates that 50% or less of the compound bound to OBP2.)	39.0%	–	–	62.0%	–
Cc1cc(C)c2c(N)c(C(=O)c3ccc(Cl)cc3)sc2n1 [compound 8, (3-amino-4,6-dimethylthieno[2,3-b]pyridin-2-yl)(4-chlorophenyl)methanone]	−10.7%	Moderate (Moderate, indicates that 50% or less of the compound bound to OBP2.)	14.4%	–	–	–	slightly attractive
O=[N+]([O-])c1cc2c(cc1CN1CCN(c3ccccc3)CC1)OCO2 [compound 26]	58.6%	–	14.8%	significantly more effective	60.0%	–	–
COc1ccc(C(=O)C=Cc2cn(C)c3ccccc23)cc1 [compound 50, 1-(4-methoxyphenyl)-3-(1-methyl-1H-indol-3-yl)-2-propen-1-one]	55.7%	–	22.2%	–	–	–	–
O=C(COC(=O)c1ccccc1)c1cccc(Br)c1 [compound 54]	–	Moderate (Moderate, indicates that 50% or less of the compound bound to OBP2.)	9.1%	–	–	–	–
Cc1ccc2c(c1Br)C(=NNC(=O)C1CC13CCC3)C(=O)N2 (centres unmarked) [compound 55]	–	Moderate (Moderate, indicates that 50% or less of the compound bound to OBP2.)	13.6%	–	–	–	–
CCn1c2ccccc2c2cc(C=Nc3ccc(C(N)=O)cc3)ccc21 [compound 56]	–	Moderate (Moderate, indicates that 50% or less of the compound bound to OBP2.)	18.2%	–	–	–	–
O=C(Nc1ccccc1)Nc1ccccc1C#Cc1ccccc1 [compound 57]	–	Moderate (Moderate, indicates that 50% or less of the compound bound to OBP2.)	16.7%	–	–	–	–
O=C(NCCCOC(=O)c1ccc(Cl)cc1)c1ccc(Cl)cc1 [compound 58]	–	Moderate (Moderate, indicates that 50% or less of the compound bound to OBP2.)	8.3%	–	–	–	–
COC(=O)C=C(C)NC(=O)c1ccc(F)cc1 [compound 59]	–	Moderate (Moderate, indicates that 50% or less of the compound bound to OBP2.)	16.7%	–	–	–	–
CC1CN(c2ccc([N+](=O)[O-])c(NCCOc3ccc(Cl)cc3)c2)CCN1 (centres unmarked) [compound 60]	–	Moderate (Moderate, indicates that 50% or less of the compound bound to OBP2.)	25.0%	–	–	–	–
O=[N+]([O-])c1cc2c(cc1CN1CCN(c3ccccc3)CC1)OCO2 [compound 61]	–	Moderate (Moderate, indicates that 50% or less of the compound bound to OBP2.)	17.4%	–	–	–	–
O=[N+]([O-])c1cc2c(cc1CN1CCN(c3cccc(Cl)c3)CC1)OCO2 [compound 64]	–	Moderate (Moderate, indicates that 50% or less of the compound bound to OBP2.)	7.0%	–	–	–	–

Reference: US10098352B2, “Honeybee repellents and uses thereof” (Inscent, Inc., priority 2011, dated 2018)
